Results published in PubChem BioAssay AID330 (DTP/NCI, 2004).
Inconclusive results and toxic doses are left out.

System: P388 leukemia ip, CD2F1 mice, survival T/C
Test: NCI In Vivo Anticancer Drug Screen. Data for tumor model P388 Leukemia (intraperitoneal) in CD2F1 (CDF1) mice
Conditions: endpoint: median survival time, higher = longer survival
Procedure, shortened: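 Mice carrying the transplanted tumor received test compound or vehicle. Survival was recorded in each group, and the value is the treated-group measurement divided by that of the vehicle-treated control group.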

[1] = dose: 50.0 mg/kg/injection, schedule: Q01DX009 (ip), vehicle: saline with Tween-80
[2] = dose: 100.0 mg/kg/injection, schedule: Q01DX009 (ip), vehicle: saline with Tween-80
[3] = dose: 200.0 mg/kg/injection, schedule: Q01DX009 (ip), vehicle: saline with Tween-80
[4] = dose: 50.0 mg/kg/injection, schedule: Q01DX005 (ip), vehicle: saline with Tween-80
[5] = dose: 100.0 mg/kg/injection, schedule: Q01DX005 (ip), vehicle: saline with Tween-80
[6] = dose: 200.0 mg/kg/injection, schedule: Q01DX005 (ip), vehicle: saline with Tween-80
[7] = dose: 60.0 mg/kg/injection, schedule: Q01DX005 (ip), vehicle: saline with Tween-80
[8] = dose: 120.0 mg/kg/injection, schedule: Q01DX005 (ip), vehicle: saline with Tween-80
[9] = dose: 240.0 mg/kg/injection, schedule: Q01DX005 (ip), vehicle: saline with Tween-80

CN(C)C1(c2ccccc2)CS(=O)(=O)C1 was tested, and the T/C [1] was 96 % of control, the T/C [2] was 96 % of control and the T/C [3] was 94 % of control.

In the case of Cc1cc(N)nc2cc(N)ccc12, the T/C (dose: 15.0 mg/kg/injection, schedule: Q01DX005 (ip), vehicle: Klucel (hydroxypropylcellulose) (HPC)) is reported as 89 % of control, the T/C (dose: 30.0 mg/kg/injection, schedule: Q01DX005 (ip), vehicle: Klucel (hydroxypropylcellulose) (HPC)) is reported as 99 % of control and the T/C (dose: 60.0 mg/kg/injection, schedule: Q01DX005 (ip), vehicle: Klucel (hydroxypropylcellulose) (HPC)) is reported as 98 % of control.

For O=C1C2CC3OC3CC2C(=O)N1CCN1C(=O)C2CC3OC3CC2C1=O (stereo not drawn), the T/C [4] was 100 % of control, the T/C [5] was 104 % of control and the T/C [6] was 104 % of control.

With OC(CO/N=C1/c2ccccc2CCC1Cc1ccccc1)CN1CCOCC1 (stereo not drawn) the T/C [7] was 108 % of control, the T/C [8] was 116 % of control and the T/C [9] was 114 % of control.

For CCCCCCCCCCCC[N+]1(CC)CCCCCC1, the T/C (dose: 0.78 mg/kg/injection, schedule: Q01DX009 (ip), vehicle: saline) was 113 % of control, the T/C (dose: 1.56 mg/kg/injection, schedule: Q01DX009 (ip), vehicle: saline) was 111 % of control and the T/C (dose: 3.12 mg/kg/injection, schedule: Q01DX009 (ip), vehicle: saline) was 92 % of control.

Cc1cccc(Nc2c3c(nc4ccccc24)CCCCC3)c1 was tested, and the T/C [7] was 98 % of control, the T/C [8] was 90 % of control and the T/C [9] was 91 % of control.

In the case of CC(=O)OCC1OC(n2ncc(=S)[nH]c2=O)C2OC(C)(C)OC12 (stereo not drawn), the T/C [1] is reported as 92 % of control, the T/C [2] is reported as 95 % of control and the T/C [3] is reported as 97 % of control.

With O=C1COC(C(O)(c2ccccc2)c2ccccc2)C(=O)N1 (stereo not drawn) the T/C [7] was 107 % of control, the T/C [8] was 102 % of control and the T/C [9] was 98 % of control.

CN(C)CC1C(=O)C2CCC1C2 (stereo not drawn) was tested, and the T/C [4] was 98 % of control, the T/C [5] was 98 % of control and the T/C [6] was 108 % of control.

In the case of COc1ccc(-c2cc(-c3ccccc3)c(-c3ccccc3)nn2)cc1, the T/C [1] is reported as 96 % of control, the T/C [2] is reported as 101 % of control and the T/C [3] is reported as 96 % of control.

In the case of O=C1C2=C3C(=CC4COC3O4)C3C4COC(O4)C(=O)C3C2C2COC1O2 (stereo not drawn), the T/C (dose: 100.0 mg/kg/injection, schedule: Q04DX002 (ip), vehicle: Klucel (hydroxypropylcellulose) (HPC)) is reported as 115 % of control, the T/C (dose: 200.0 mg/kg/injection, schedule: Q04DX002 (ip), vehicle: Klucel (hydroxypropylcellulose) (HPC)) is reported as 109 % of control and the T/C (dose: 400.0 mg/kg/injection, schedule: Q04DX002 (ip), vehicle: Klucel (hydroxypropylcellulose) (HPC)) is reported as 115 % of control.

For CC(c1ccccc1)C1(C)NC(=O)NC1=O (stereo not drawn), the T/C (dose: 100.0 mg/kg/injection, schedule: Q04DX003 (ip), vehicle: saline with Tween-80) was 97 % of control and the T/C (dose: 200.0 mg/kg/injection, schedule: Q04DX003 (ip), vehicle: saline with Tween-80) was 101 % of control.

For CCOP(=S)(N/N=C(/c1ccc(C)s1)C(F)(F)F)OCC, the T/C (dose: 50.0 mg/kg/injection, schedule: Q01DX005 (ip), vehicle: Klucel (hydroxypropylcellulose) (HPC)) was 104 % of control, the T/C (dose: 100.0 mg/kg/injection, schedule: Q01DX005 (ip), vehicle: Klucel (hydroxypropylcellulose) (HPC)) was 110 % of control and the T/C (dose: 200.0 mg/kg/injection, schedule: Q01DX005 (ip), vehicle: Klucel (hydroxypropylcellulose) (HPC)) was 114 % of control.
